# Test results as given in patent publication EP0449026A2, “Desoxynojirimycin derivatives, process for their preparation and their use in drugs” (BAYER AG, priority 1990, dated 1991).
# Test system: Visna-Virus
# Assay: Visna virus test: inhibition of the virus-induced cytopathic effect in infected sheep fibroblast cultures
# Assay type: cell-based
# Conditions: Visna-maedi virus, Fibroblastenzellen vom Schaf, MOI ca. 0,05, 7 Tage bei 37°C 5% CO₂, concentration at which the cytopathic effect is inhibited by 50%, read microscopically
# Description: In Zellkulturen, die mit Visna-Virus infiziert sind, treten 5 bis 10 Tage nach der Infektion ausgeprägte virusinduzierte, zytopathische Effekte auf. Durch Behandlung der infizierten Zellkulturen mit den erfindungsgemäßen Verbindungen konnte das Auftreten dieser zytopathischen Effekte verhindert werden.
# Der Visna-Virus-Test wurde nach der Methode von O. Narayan et al., Journal of Infectious Diseases 135, 5, 1977, 800 - 806 durchgeführt. Dazu wurden die erfindungsgemäßen Verbindungen im Kulturmedium in nicht zytotoxischen Konzentrationen in 96er Microtiterplatten verdünnt. Anschließend wurden Fibroblastenzellen vom Schaf (5 x 10⁴ Zellen pro Napf) in Produktionsmedium zu jedem Näpfchen zugeführt. Jedes Näpfchen erhielt dann 50 µl einer Visna-Viruslösung mit einer Titer von ca. […] TCID₅₀ (TCID = tissue culture infectious dosis). Diese Virusdosis entspricht einer MOI (Multiplizität der Infektion) von ca. 0,05.
# Unter diesen Infektionsbedingungen resultierte zwischen Tag 5 und Tag 10 in einer Infektionskontrolle ohne Substanz ein virusinduzierter, zytopathischer Effekt. Die infizierten und behandelten Zellen und die Kontrollzellen wurden 7 Tage bei 37°C 5% CO₂ inkubiert.
# Bei Auftreten des virusinduzierten zytopathogenen Effektes in der unbehandelten Viruskontrolle wurden die Kulturen mit Formalin fixiert und anschließend mit einer Giemsa-Lösung gefärbt. Die inhibitorische Konzentration (IC₅₀) wurde mikroskopisch als die Konzentration ermittelt, bei der der zytopathische Effekt um 50% gehemmt wurde: im Vergleich zur unbehandelten Viruskontrolle, die 100% Zellzerstörung aufwies.
row,Compound,IC50
1,"CC=CCN1CC(OC(=O)c2ccccc2)C(OC(=O)c2ccccc2)C(O)C1CO (stereo not drawn) [Beispiel 3, N-Butenyl-2,3-dibenzoyl-desoxynojirimycin]",50 µg/mL
2,CC=CCN1CC(OC(C)=O)C(OC(C)=O)C(O)C1CO (stereo not drawn) [Beispiel 6],12.5 µg/mL
3,CC=CCN1CC(OC(=O)CC(C)C)C(OC(=O)CC(C)C)C(O)C1CO (stereo not drawn) [Beispiel 10],20 µg/mL
